Assays:
[1] = Dissociation constant, pKa of the compound by capillary electrophoresis; type: physicochemical
[2] = Drug uptake in wild-type C57Bl/6J mouse brain at 30 mg/kg, po after 4 hrs; type: ADME, organism-based; design: dose 30 mg/kg, route oral; conditions: read-out: Drug uptake
[3] = Plasma concentration in wild-type C57Bl/6J mouse at 30 mg/kg, po after 4 hrs; type: ADME, organism-based; design: dose 30 mg/kg, route oral
[4] = Ratio of drug level in brain to plasma in wild-type C57Bl/6J mouse at 30 mg/kg, po after 4 hrs; type: ADME, organism-based; design: dose 30 mg/kg, route oral; conditions: read-out: BPR

| pKa [1] | concentration at 4 h [2] | concentration at 4 h [3] | Kp at 4 h [4] | SMILES |
| --- | --- | --- | --- | --- |
| 8.3 | – | – | – | C[C@@]1(c2cccc(NC(=O)c3ccc(Cl)cn3)c2)COC(N)=N1 |
| 8.3 | – | – | – | CC1(c2cccc(NC(=O)c3ccccn3)c2)CSC(N)=N1 (centres undefined) |
| 7.3 | – | – | – | CN1C(=O)C(C)(c2cccc(NC(=O)c3ccc(Cl)cn3)c2)N=C1N (centres undefined) |
| 9.7 | – | – | – | C[C@]1(c2cccc(NC(=O)c3ccc(Cl)cn3)c2)N=C(N)c2ccccc21 |
| 8.3 | – | – | – | NC1=NC2(CCc3ccc(NC(=O)c4ccc(Cl)cn4)cc32)CO1 (centres undefined) |
| 8.3 | – | – | – | NC1=NC2(CCc3ccc(NC(=O)c4ccc(Cl)cn4)cc32)CS1 (centres undefined) |
| > 11 | < 13 ng/g | < 3 ng/mL | – | CN1CC[C@@](C)(c2cc(NC(=O)c3ccc(Cl)cn3)ccc2F)N=C1N |
| > 11 | 8 ng/g | 81 ng/mL | 0.1 | C[C@@]1(c2cc(NC(=O)c3ccc(Cl)cn3)ccc2F)CCC2(CC2)C(N)=N1 |
| 10.4 | – | – | – | C[C@@]1(c2cc(NC(=O)c3ccc(Cl)cn3)ccc2F)CCCOC(N)=N1 |
